Data reported in US11638718B2, “Treatment of alphavirus-induced inflammation” (priority 2016, dated 2023).
Marks after values point to notes of the source that are not given here.

Key:
[1] = system: chikungunya virus (CHIKV); assay: Serum soluble factors by multiplex, CHIKV-infected mice
Ross River virus (RRV) [2] = assay: RRV-induced disease in mice: clinical score and weight; assay type: in vivo, C57BL/6 mice; details: RRV-infected mice, PPS 3 mg/kg i.p. daily vs vehicle
[3] = system: chikungunya virus (CHIKV); assay: CHIKV viral load: plaque assay on Vero cells and E2 qPCR; assay type: in vivo, C57BL/6 mice; details: CHIKV-infected, days 1, 3 and 7 p.i.
[4] = system: chikungunya virus (CHIKV); assay: CHIKV-induced footpad swelling and joint histology in mice; assay type: in vivo, C57BL/6 mice
Ross River virus (RRV) [5] = assay: RRV viral load: plaque assay on Vero cells and nsP3 qPCR; assay type: in vivo, C57BL/6 mice
[6] = system: cartilage matrix genes in joint tissues of RRV-infected mice; assay: Real-time PCR of cartilage matrix genes in joint tissues, acute RRV infection
Ross River virus (RRV) [7] = assay: Serum soluble factors by multiplex bead array, RRV-infected mice
[8] = humans, periods greater than 12 months (ref 53); cited from earlier work
Ross River virus (RRV) [9] = assay: Detection of leukocyte infiltrates in quadriceps by flow cytometry, RRV-infected mice
Ross River virus (RRV) [10] = assay: Long-term oral PPS treatment of RRV-infected mice: clinical signs, joint gene expression
Ross River virus (RRV) [11] = assay: H&E histology of quadriceps muscle and joint inflammation, RRV-infected mice
Ross River virus (RRV) [12] = assay: Masson's trichrome and Safranin O/Fast Green histology of muscle, cartilage and epiphyseal plate, RRV-infected mice; details: day 10 p.i.
alphavirus = details: earlier studies by the group (refs 30, 55-57); cited from earlier work
[13] = peak disease (day 10 p.i.), not at the early stages
[14] = RRV + PPS, long-term oral treatment, joint tissue
[15] = long-term oral PPS, RRV-infected

## pentosan polysulfate [PPS]
[1]; early
  serum IL-10: early surge
[1]; peak disease (day 3 p.i.)
  serum CCL-2: reduced the levels
  serum G-CSF: reduced the levels
  serum IL-6: reduced the levels
  serum IL-9: reduced the levels
Ross River virus (RRV) [2]
  decrease in clinical disease score: 65%
  disease-associated weight loss: protection from disease-associated weight loss
[3]
  kinetics of virus infection (plaque assay): did not affect the kinetics of virus infection
[4]; CHIKV-infected mice, PPS 3 mg/kg i.p. daily
  joint (footpad) swelling: decreased the level of joint swelling
[4]; CHIKV-infected, peak swelling 3 days p.i.
  inflammatory cells infiltrating into the joint (H&E): reduction in inflammatory cells infiltrating into the joint
Ross River virus (RRV) [5]; PPS-treated vs mock-treated, all days tested, plaque assay
  viral titres in serum: comparable
Ross River virus (RRV) [5]; PPS-treated vs mock-treated, plaque assay
  RRV titres in quadriceps muscles: comparable
Ross River virus (RRV) [5]; day 3 p.i., plaque assay
  RRV titres in ankle tissues: slight reduction
Ross River virus (RRV) [5]; day 7 p.i., plaque assay
  RRV titres in ankle tissues: comparable
Ross River virus (RRV) [5]; day 10 p.i.
  RRV RNA in joint tissue (qPCR), difference to mock-treated: not statistically significant
Ross River virus (RRV) [5]; day 10 p.i., plaque assay, vs mock-treated
  RRV titres in ankle tissues: elevated
[6]; RRV-infected, PPS 3 mg/kg i.p.
  BMP-1 expression: unaffected
  TGF-β1 expression: unaffected
  aggrecan expression increase caused by RRV: largely reduced
  collagen I expression increase caused by RRV: largely reduced
  collagen II expression increase caused by RRV: largely reduced
  metalloproteinases expression: unaffected
[6]; early time points p.i.
  early expression of aggrecan: significantly reduced
  early expression of collagen II: significantly reduced
[6]; [13]
  ADAMTS-5 expression in joint tissue: significantly reduced
  TIMP-3 expression in joint tissue: significantly reduced
Ross River virus (RRV) [7]; day 1 p.i.
  serum IL-10: significantly elevated
  serum chemo-attractants factors: increased levels
Ross River virus (RRV) [7]; day 3 p.i.
  serum IL-10: significantly elevated
Ross River virus (RRV) [7]; peak disease (day 10 p.i.)
  serum CCL-2: significantly reduced
  serum IL-1α: significantly reduced
  serum IL-2: significantly reduced
  serum IL-6: significantly reduced
  serum MIP-1α: significantly reduced
[8]
  tolerability of long-term clinical use: extremely well tolerated
Ross River virus (RRV) [9]; day 7 p.i.
  NK cell population in quadriceps: reductions
  T cell population in quadriceps: reductions
  monocyte population in quadriceps: reductions
  numbers of CD45+ infiltrating leukocytes in quadriceps: uniformly reduced
Ross River virus (RRV) [9]; day 10 p.i.
  NK cell population in quadriceps: decrease
  T cell population in quadriceps: decrease
Ross River virus (RRV) [9]; day 10 p.i., data not shown
  percentage of NK cells in quadriceps (NK cell to total cell ratio): reduction in the overall percentage of NK cells
Ross River virus (RRV) [10]; [14]
  Fold Change ADAMTS-4: 0.1689**
  Fold Change ADAMTS-5: 0.8305
  Fold Change Aggrecan: 0.6105***
  Fold Change BMP-1: 1.4697
  Fold Change Collagen I: 0.4014
  Fold Change Collagen II: 0.1719
  Fold Change MMP-3: 2.5028
  Fold Change MMP-9: 0.8604
  Fold Change TGF-β1: 0.4010
  Fold Change TIMP-3: 0.6328
Ross River virus (RRV) [10]; [15]
  ADAMTS-4 expression: reduced
  expression of aggrecan: back to base-line levels
  joint damage: less joint damage
Ross River virus (RRV) [10]; oral PPS in drinking water 100 mg/L (25 mg/kg/day), 3-month duration
  adverse clinical signs: no adverse clinical signs
Ross River virus (RRV) [11]; RRV-infected, PPS 3 mg/kg i.p. daily, day 7 and 10 p.i.
  infiltrating cells in muscle and joint tissues (H&E): markedly reduced numbers of infiltrating cells
Ross River virus (RRV) [11]; mock-infected PPS-treated mice
  inflammation in quadriceps muscle or ankle joint: No inflammation was observed
Ross River virus (RRV) [12]
  chondrocyte morphology: maintaining chondrocyte morphology
  epiphyseal plate thickness: prevented RRV-induced thinning of the epiphyseal plate
  loss of articular cartilage: preventing the loss of articular cartilage
  proteoglycan matrix of articular cartilage (Safranin O/Fast Green, knee joint): protected the proteoglycan matrix of the articular cartilage
  skeletal muscle morphology (tibialis anterior, Masson's trichrome): protected the morphology of striations within the skeletal muscle

## Enbrel
alphavirus
  effect on alphavirus disease: suppress the antiviral response and enhance viral replication thereby worsen disease
